Assay results as given in patent publication US12215106B2, “Pharmaceutical compounds and therapeutic methods” (RUTGERS, THE STATE UNIVERSITY OF NEW JERSEY, priority 2018, dated 2025).

Legend:
P-gp = assay: Bi-directional Caco-2 transport assay; type: in vitro ADME; details: human, Caco-2; efflux ratio >2: potential P-gp substrate; read-out: Efflux Ratio (B-A/A-B)
Description: (§1) The objective of the study is to evaluate test compounds as substrates for efflux transporter using Caco-2 cell line. To assess the functionality of P-glycoprotein (P-gp), loperamide was run as a positive control (Apical and basolateral HBSS pH 7.4).
(§2) 5 mM DMSO stock of test compounds and loperamide was diluted 1000-folds in HBSS having 0.1% DMSO to prepare concentrations of 5 μM.
(§3) Caco-2 cells were grown in DMEM (20% FBS) until 85-90% confluence. After attaining required confluence, cells were trypsinized and seeded into 24 well millcell plates at a density of 0.6×10^5 cells/insert. The plates were maintained for 21 days at 37° C. in CO2 incubator with change of medium every alternative day. Monolayer integrity was monitored by measuring Trans-epithelial electrical resistance (TEER) from day 15.
(§4) Caco-2 cell monolayer was washed twice with HBSS and incubated for 40 min in CO2 incubator. TEER values were measured and wells showing TEER values above 230 ohms·cm^2 were taken for experiments. The study was performed in loperamide and test compounds by adding 400 μL of loperamide prepared in HBSS in apical (A-B transport) followed by addition of 800 μL of HBSS on basal side and for B-A transport 800 μL of loperamide prepared in HBSS was dosed in basal followed by addition of 400 μL HBSS on apical side. At selected time points (0, 15, 30, 60 and 90 mins) an aliquot of 50 μL was collected from the receiver compartment for determination of test compound concentrations. The volume withdrawn was replaced immediately with HBSS buffer. TEER was measured at the end to the experiment to confirm any damage of monolayer while performing experiment. Those wells with TEER not meeting the criteria were excluded from the study.
(§5) A 50 μL of test compound samples collected at respective time points and submitted for LC-MS/MS analysis.
(§6) The apparent permeability (Papp) (A−B & B−A) of test compounds and positive control was calculated using the following formula: Papp=dQ/dt/A·Co where, dQ/dt=linear slope of test compound concentration in receptor chamber with time (0, 15, 30, 60 and 90 min) after correcting for dilution; A=area of the filter (0.7 cm^2); and Co=initial concentration of compound in the donor compartment.
(§7) Efflux ratio (RE) was calculated using the following equation: RE=PB/A/PA/B where PB/A and PA/B represent the apparent permeability of test compound from the basal to apical and apical to basal side of cell monolayer.
(§8) Recovery represents: (amount of the compound recovered from donor at end of incubation+cumulative amount of compound in acceptor at end of incubation+amount of the compound in cell lysate or assay well)/amount of compound in donor solution at time zero*100
(§9) Compounds are classified based on Papp values as follows:
(§10) A compound having efflux ratio of >2 is considered as having potential as a P-gp substrate.

[1] = Bi-directional Caco-2 transport assay; type: in vitro ADME; details: human, Caco-2, 5 μM
Description: as §1, §2, §3, §4, §5, §6, §7, §8, §9, §10

mice plasma = assay: in vitro; type: in vitro ADME; details: mouse, plasma, 4 h, 5 μM
Description: (§11) The objective of this study was to evaluate protein binding test compounds in mice plasma. This was accomplished by spiking the test compounds at a concentration of 5 μM into mice plasma and dialyzing against buffer until equilibrium is achieved (4 hours). Analyte area ratios of the test compounds in plasma and buffer were determined to calculate unbound and bound percentages of compound to the plasma proteins.
(§12) Phosphate buffered saline pack (0.1 M sodium phosphate and 0.15 M sodium chloride, pH 7.2) was dissolved in 500 mL of deionized water and pH was adjusted to 7.4 with 0.5 N NaOH.
(§13) 1 mM stock solutions were prepared in DMSO and diluted 200-folds in mice plasma to prepare a concentration of 5 μM. The final DMSO concentration in plasma was 0.5%.
(§14) Rapid equilibrium dialysis was performed with a rapid equilibrium dialysis (RED) device containing dialysis membrane with a molecular weight cut-off of 8,000 Daltons. Each dialysis insert contains two chambers. The red chamber is for plasma while the white chamber is for buffer.
(§15) A 200 μL aliquot of warfarin and test compound at 5 (triplicates) were separately added to the plasma chamber and 350 μL of phosphate buffer saline (pH 7.4) was added to the buffer chamber of the inserts. After sealing the RED device with an adhesive film, dialysis was performed in incubator at 37° C. with shaking at 100 RPM for 4 hours.
(§16) A 50 μL aliquot of warfarin and test compounds were added to four 0.5 mL microfuse tubes. Two aliquots were frozen immediately (0 minute sample). The other two aliquots were incubated at 37° C. for 4 hours along with the RED device.
(§17) Following dialysis, an aliquot of 50 μL was removed from each well (both plasma and buffer side) and diluted with equal volume of opposite matrix (dialyzed with the other matrix) to nullify the matrix effect. Similarly, 50 μL of buffer was added to recovery and stability samples. An aliquot of 100 μL was submitted for LCMS/MS analysis.
(§18) A 25 μL aliquot of warfarin and test compounds were crashed with 100 μL of acetonitrile containing internal standard (glipizide) and vortexed for 5 minutes. The samples were centrifuged at 4000 RPM at 4° C. for 10 min and 100 μL of supernatant was submitted for LC-MS/MS analysis. Samples were monitored for parent compound in MRM mode using LC-MS/MS.
(§19) The peak area ratios (analyte versus internal standard) obtained were used to determine the fraction of compound bound to plasma proteins.

in vitro = in vitro ADME, mice; details: mouse; for fraction unbound at 4 h, 5 μM: plasma
Description: as §11, §12, §13, §14, §15, §16, §17, §18, §19

SMILES | efflux ratio at 90 min, 5 μM (P-gp) | Papp A→B at 90 min, 5 μM ([1]; HBSS pH 7.4, apical to basal, read-out: Papp (A-B)) | Papp B→A at 90 min, 5 μM ([1]; HBSS pH 7.4, basal to apical, read-out: Papp (B-A)) | % compound remaining at 4 hrs (mice plasma) | recovery at 4 h, 5 µM (in vitro; Plasma, pH 7.4) | fraction unbound at 4 h, 5 μM (in vitro; pH 7.4, % Bound Mean ± SD) | fraction unbound at 4 h, 5 μM (in vitro; pH 7.4, % Bound R1) | fraction unbound at 4 h, 5 μM (in vitro; pH 7.4, % Bound R2) | fraction unbound at 4 h, 5 μM (in vitro; pH 7.4, % Bound R3)
CN(C)C(=O)C(CCN1CCC(O)(c2ccc(Cl)cc2)CC1)(c1ccccc1)c1ccccc1 [Loperamide, reference compound] | 5.2 | 1.6 ± 0.2 ×10⁻⁶ cm/s | 8.4 ± 1.2 ×10⁻⁶ cm/s | – | – | – | – | – | –
CC(=O)CC(c1ccccc1)c1c(O)c2ccccc2oc1=O (stereo not drawn) [Warfarin, reference compound] | – | – | – | 94% | 109% | 0.069 | 0.071 | 0.075 | 0.062
